ChEMBL document CHEMBL1122611, “Synthesis and in vitro biological evaluation of N-[(5-amino-1-beta-D-ribofuranosyl-1H-imidazol-4-yl)carbonyl]-3- (hydroxynitrosamino)-L-alanine (L-alanosine AICO ribonucleoside)” (1984)

How the values were obtained:
[1] = Evaluation of inhibitory activity against adenylosuccinate synthetase
[2] = Evaluation of inhibitory activity of adenylosuccinate synthetase
HL-60 = assay: In vitro evaluation of inhibitory activity of HL60 human promyelocytic tumor cell; assay type: functional; conditions: read-out: ED50 (the source's name)

Structure (SMILES) | ED50 [1] | ED50 [2] | EC50 (HL-60)
Nc1c(C(=O)NC(CN(O)N=O)C(=O)O)ncn1[C@@H]1O[C@H](CO)[C@@H](O)[C@H]1O (stereo not given in full) | > 1000 µM | 0.3 µM | > 100 µM
N[C@@H](CN(O)N=O)C(=O)O [LALANOSINE] | 7000 µM |  | 2 µM
